Assays:
Type in all cases: cell-based, human
MCF7TDX cells [1] = assay: 96-well crystal violet combination cytotoxicity assay with NB1011; conditions: for Interaction: interaction with NB1011; for Average combination index (CI): drug combined with NB1011 at constant molar ratio, 96-well crystal violet, 72 hour incubation; on Interaction: key: Syn = synergy; Ant = antagonism; Add = additivity
Description: (§1) Normal human colon epithelial cells (CCD18co) and skin fibroblasts (Det551) were purchased from ATCC (Rockville, Md.). MCF7TDX, human breast carcinoma cells resistant to 2 μM Tomudex were obtained from Dr. Patrick Johnston, Queens University, Belfast. […] The MCF7TDX and the H630R10 cell lines have been previously described in Drake, J. C. et al., 1996 and Copur, S. et al., 1995, respectively.
(§2) All cells were cultured under standard conditions of 37° C., 95% humidified air, 5% CO2 in RPMI 1640 culture medium containing 10% fetal calf serum (Life Technologies) and penicillin/streptomycin/fungizone. MCF7TDX cells were maintained continuously in 2 μM Tomudex, and H630R10 cells were maintained continuously in 10 μM 5-FU. The medium was renewed or the cells were passaged about every three days to maintain optimal growth conditions. Normal cells were passaged a maximum of 15 times to avoid senescence.
(§3) Exponentially rowing cells were transferred at a density of 1.0−5.5×10^3 cells per well to a 96-well tissue culture plate and allowed to attach for 24 hours. Compounds were then applied in duplicate half log serial dilutions. Each compound was tested separately, and mixed together at a single molar ratio approximately equal to the ratio of the individual IC50 values. After an additional 72 hour incubation, cells were washed once with PBS and stained with 0.5% crystal violet in methanol. Plates were washed gently in water to remove unbound stain and allowed to dry overnight. Crystal violet stain bound to the total protein of attached cells was redissolved in Sorenson's buffer (0.025 M sodium citrate, 0.025 M citric acid in 50% ethanol), and absorbance monitored at 535 nm. Sigmoid curves were fit according to the Hill inhibitory Emax model, and IC50 calculated as the average of three or more separate determinations. Where applicable, the combination index for multiple drug effects was calculated according to the median-effect principle (Chou, T. C. and Talalay, P. 1984) using the CalcuSyn software from Biosoft (Ferguson, Mo.). Briefly, the IC50 and the slope parameter (m) for each agent alone were determined from the median effect plot, an x,y plot of log(D) vs log (fa/fu) based on Chou's median effect equation:
(§4) fa/fu=(D/Dm)^m [Equation 1]
(§5) Only experiments with linear correlation coefficients (r)>0.9 were accepted for analysis. A combination index (CI) was then calculated to assess synergism or antagonism according to the following equation which assumes an independent mechanism of drug action (mutual exclusivity):
(§6) CI=(D)1/(Dx)1+(D)2/(Dx)2+(D)1(D)2/(Dx)1(Dx)2 [Equation 2]
(§7) where (D)1 and (D)2 are the concentrations of drug 1 and drug 2 which combined produce x% inhibition, and (Dx)1 and(Dx)2 are the concentrations of each drug which alone produce x% inhibition. CI=1 indicates an additive interaction, CI<1 indicates synergy, and CI>1 indicates antagonism. For each experiment CI's from several different effect levels and concentrations of a constant molar ratio were averaged.
(§8) The 96-well format was chosen for more detailed drug interaction studies. […] To analyze whether any of these drugs would enhance the activity of NB1011 specifically in tumor cells, two normal cell types, Det551 and CCD18co, were included in the assays.

H630R10 cells [2] = assay: as above; conditions: for Interaction: interaction with NB1011; for Average combination index (CI): drug combined with NB1011 at constant molar ratio, 96-well crystal violet, 72 hour incubation
Description: as §1, §2, §3, §4, §5, §6, §7, §8

H630R10 cells [3] = assay: 384-well alamarBlue interaction screening assay with NB1011; conditions: drug combined with NB1011, 5-day incubation, average of at least 4 consecutive dose/effect levels
Description: as §1, §2
(§9) 500 cells per well were transferred to a 384-well tissue culture plate (Corning Inc., Corning, N.Y.) and allowed to attach for 24 hours in standard culture conditions. Compounds were then applied in a bidirectional (checker board) pattern (Chou, T. C. and Talalay, P. 1984). Following a 5-day incubation, the redox indicator dye, alamarBlue (AccuMed International, Westlake, Ohio) was added to each well at a 10% v/v ratio, and fluorescence was monitored at 535 excitation, 595 emission. Cytotoxic effect levels and drug interactions were assessed by the combination index method (Chou, T. C. and Talalay, P. 1984 and Bible, K. C. et al. 1997), described briefly below.
as §5, §6, §7
(§10) In general, a combination index of <1 indicates synergy, ˜1 indicates additivity, and >1 indicates antagonism (Pegram, M. D. et al. (1999)).

[4] = tested on: Det551 normal skin fibroblasts; assay: 96-well crystal violet combination cytotoxicity assay with NB1011; conditions: for Average combination index (CI): drug combined with NB1011 at constant molar ratio, Det551 normal cells, 96-well crystal violet, 72 hour incubation; for Interaction: interaction with NB1011, Det551; on Interaction: key: Syn = synergy; Ant = antagonism; Add = additivity
Description: as §1, §2, §3, §4, §5, §6, §7, §8

[5] = tested on: CCD18co normal colon epithelial cells; assay: as above; conditions: for Average combination index (CI): drug combined with NB1011 at constant molar ratio, CCD18co normal cells, 96-well crystal violet, 72 hour incubation; for Interaction: interaction with NB1011, CCD18co
Description: as §1, §2, §3, §4, §5, §6, §7, §8

MCF7TDX cells [6] = assay: 384-well alamarBlue interaction screening assay with NB1011; conditions: drug combined with NB1011, 5-day incubation, average of at least 4 consecutive dose/effect levels
Description: as §1, §2, §9, §5, §6, §7, §10

SMILES: O=C1[O][Pt]2([NH][C@@H]3CCCC[C@H]3[NH]2)[O]C1=O [Oxaliplatin]
- Interaction (MCF7TDX cells [1]): Ant
- Interaction (H630R10 cells [2]): Ant

SMILES: CCc1c2c(nc3ccc(OC(=O)N4CCC(N5CCCCC5)CC4)cc13)-c1cc3c(c(=O)n1C2)COC(=O)[C@]3(O)CC [Irinotecan]
- Combination Index ± s.e.m. (H630R10 cells [3]): 1.26 ± 0.20

SMILES: O=[N+]([O-])c1ccc(CSc2ncnc3c2ncn3C2OC(CO)C(O)C2O)cc1 (stereo not shown) [NBMPR, p-nitrobenzylthioinosine]
- Average combination index (CI) (MCF7TDX cells [1]): 0.57
- Interaction (MCF7TDX cells [1]): Syn
- Average combination index (CI) (H630R10 cells [2]): 0.35
- Interaction (H630R10 cells [2]): Syn
- Average combination index (CI) [4]: 1.43
- Interaction [4]: Ant
- Average combination index (CI) [5]: 3.93
- Interaction [5]: Ant

SMILES: N.N.[Cl][Pt][Cl] [Cisplatin]
- Combination Index ± s.e.m. (MCF7TDX cells [6]): 1.51 ± 0.35

SMILES: OCCN(CCO)c1nc(N2CCCCC2)c2nc(N(CCO)CCO)nc(N3CCCCC3)c2n1 [Dipyridamole, dipyridamole]
- Average combination index (CI) (MCF7TDX cells [1]): 0.51
- Interaction (MCF7TDX cells [1]): Syn
- Average combination index (CI) (H630R10 cells [2]): 0.75
- Interaction (H630R10 cells [2]): Syn
- Average combination index (CI) [4]: 1.17
- Interaction [4]: Add
- Average combination index (CI) [5]: 1.30
- Interaction [5]: Ant

SMILES: CC[C@]1(O)C[C@@H]2CN(CCc3c([nH]c4ccccc34)[C@@](C(=O)OC)(c3cc4c(cc3OC)N(C)[C@H]3[C@@](O)(C(=O)OC)[C@H](OC(C)=O)[C@]5(CC)C=CCN6CC[C@]43[C@@H]65)C2)C1 [Vinblastine]
- Interaction (MCF7TDX cells [1]): Ant
- Interaction (H630R10 cells [2]): Syn
- Interaction [4]: Syn
- Interaction [5]: Syn
- Combination Index ± s.e.m. (H630R10 cells [3]): 0.78 ± 0.32

SMILES: COc1cccc2c1C(=O)c1c(O)c3c(c(O)c1C2=O)C[C@@](O)(C(=O)CO)C[C@@H]3O[C@H]1C[C@H](N)[C@H](O)[C@H](C)O1 [Doxorubicin]
- Interaction (MCF7TDX cells [1]): Ant
- Interaction (H630R10 cells [2]): Ant

SMILES: CC(=O)O[C@H]1C(=O)[C@@]2(C)[C@H]([C@H](OC(=O)c3ccccc3)[C@]3(O)C[C@H](OC(=O)[C@H](O)[C@@H](NC(=O)c4ccccc4)c4ccccc4)C(C)=C1C3(C)C)[C@]1(OC(C)=O)CO[C@@H]1C[C@@H]2O [Taxol]
- Combination Index ± s.e.m. (H630R10 cells [3]): 0.99 ± 0.15

From patent US20020147175A1, “Synergistic ECTA compositions” (priority 2000, published 2002)
